Data as given in PubChem BioAssay (NCI).
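Test compounds were applied to cells in 96-well plates for 48 hours at 5 doses. TGI: total growth inhibition.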

Tests used:
Assay in all cases: growth of human tumour cells (NCI), 48 h
A549 NSCLC = system: A549 NSCLC
SN12C renal = system: SN12C renal
CCRF-CEM leukemia = system: CCRF-CEM leukemia
LOX IMVI melanoma = system: LOX IMVI melanoma
NCI/ADR-RES ovarian = system: NCI/ADR-RES ovarian
ACHN renal = system: ACHN renal
MCF7 breast = system: MCF7 breast
HL-60(TB) leukemia = system: HL-60(TB) leukemia
UO-31 renal = system: UO-31 renal
SF-539 CNS = system: SF-539 CNS

| Structure (SMILES) | TGI (A549 NSCLC) [µM] | TGI (SN12C renal) [µM] | TGI (CCRF-CEM leukemia) [µM] | TGI (LOX IMVI melanoma) [µM] | TGI (NCI/ADR-RES ovarian) [µM] | TGI (ACHN renal) [µM] | TGI (MCF7 breast) [µM] | TGI (HL-60(TB) leukemia) [µM] | TGI (UO-31 renal) [µM] | TGI (SF-539 CNS) [µM] |
| --- | --- | --- | --- | --- | --- | --- | --- | --- | --- | --- |
| O=c1oc2ccc([N+](=O)[O-])cc2c(Nc2ccc3c(c2)Sc2ccccc2O3)c1[N+](=O)[O-] | 73.9 | 51.2 | 50.4 | 36.2 | 85.5 | 72 | 56.7 | 46.8 | 37.8 | 37.7 |
| COC(=O)/C=C\C(C#N)(C#N)N=Cc1ccccc1 | 34.3 | 26.6 | 2.4 | 5.72 | 9.03 | 6.35 | 5.73 | 6.42 | 7.23 | 9.71 |
| COc1cc(C2SC(C)C(=O)N2c2ccc(-c3csc(NS(=O)(=O)c4ccc(Cl)c(OC)c4)n3)cc2)ccc1O (stereo not given) | > 100 | 56.7 | > 100 | > 100 | > 100 | > 100 | > 100 | 95.7 | > 100 | > 100 |
| COc1ccc(/C=C/C(=O)c2cc(C(C)(C)C)c(O)c(C(C)(C)C)c2)cc1OC | > 100 | 65.5 | 11.8 | 29.3 | 49.7 | 99.3 | 32.4 | 17.6 | 57.9 | 52.1 |
| COc1cc2cc(C(=O)N3CC(CCl)c4c3cc(NC(=O)OCc3ccc([N+](=O)[O-])cc3)c3ccccc43)[nH]c2c(OC)c1OC (stereo not given) | > 100 | > 100 | > 57.6 | > 100 | > 100 | > 34.5 | > 100 | > 38.5 | 0.516 | > 100 |
| CC(=O)OCc1cncn1S(=O)(=O)c1ccc(C)cc1 | > 100 | > 100 | > 100 | > 100 | > 100 | > 100 | > 100 | 50.2 | > 100 | > 100 |
| CC(=O)c1ccccc1NCC(=O)Nn1cnc2ccc(S(=O)(=O)Nc3ccccc3C(C)=O)cc2c1=O | > 100 | > 100 | > 100 | > 100 | > 100 | > 100 | > 100 | > 100 | > 100 | > 100 |
| CCOC(=O)c1sc2nc(SC)nc3c2c1NCN3c1ccc(F)c(F)c1 | 25.3 | > 100 | > 100 | > 60.1 | > 88.8 | > 100 | > 100 | > 100 | > 63.3 | 11.7 |
| CCCC(O)c1cn(C(NC(=O)c2ccccc2)P(=O)(OCC)OCC)nn1 (stereo not given) | > 100 | > 100 | > 100 | > 100 | > 100 | > 100 | > 100 | > 100 | > 100 | > 100 |
| CC(=O)OCC1OC(OCCCCCCO)C(OC(C)=O)C(OC(C)=O)C1OC(C)=O (stereo not given) | > 100 | > 100 | > 100 | > 100 | > 100 | > 100 | > 100 | > 100 | > 100 | > 100 |
| COc1ccc2c(c1)C/C(=C\c1cccc3ccccc13)C2=O | > 100 | > 100 | > 100 | > 100 | > 100 | > 100 | > 100 | > 100 | > 100 | 44.8 |
| C(=Nc1ccc(-c2nc3ccccc3[nH]2)cc1)c1ccc[nH]1 | > 100 | > 100 | 85.1 | > 100 | > 100 | > 100 | > 100 | 20.1 | > 100 | > 100 |
| O=c1sc2c(s1)-c1sc(=O)sc1SS2 | > 100 | > 100 | > 96 | > 100 | > 76.3 | > 100 | > 100 | > 100 | > 100 | 99.1 |
| COc1ccc(/C=C2\CCS(=O)(=O)c3ccccc3C2=O)cc1OC | > 100 | > 100 | > 100 | 43.8 | 81.6 | > 100 | > 100 | 70 | > 100 | > 100 |
| CCO[C@@]1(COCc2ccccc2)OC(=O)C[C@@H]1N1C(=O)OC[C@@H]1c1ccccc1 | > 100 | > 100 | > 100 | > 100 | > 100 | > 100 | > 100 | > 100 | > 100 | > 100 |
| COc1cc2oc(=O)cc(C)c2cc1O | > 100 | > 100 | > 100 | > 100 | > 100 | > 100 | > 100 | > 100 | > 100 | > 100 |
| C(=N\Nc1ccc(-c2nc3ccccc3[nH]2)cc1)/c1c(-c2ccc(Cc3ccccc3)cc2)[nH]c2ccccc12 | > 100 | > 100 | > 100 | 23 | 52.8 | > 79.8 | > 48.8 | > 63.5 | 49.2 | 44.6 |
| O=[N+]([O-])c1ccc(N/N=C/CC(O)(C(F)(F)F)C(F)(F)F)c([N+](=O)[O-])c1 | > 10 | > 10 | > 10 | > 10 | > 10 | > 10 | > 10 | > 10 | > 10 | > 10 |
